From the NIST ThermoML archive (doi:10.1021/acs.jced.7b00712)

Conditions: Brillouin light scattering

CC(C)CC(C)(C)C [2,2,4-trimethylpentane]
Conditions | speed of sound [m/s]
294.06 K, 100 kPa, Liquid | 1099.7
294.37 K, 3000 kPa, Liquid | 1127.4
294.65 K, 6000 kPa, Liquid | 1147.6
294.84 K, 10000 kPa, Liquid | 1176.1
294.97 K, 12000 kPa, Liquid | 1181.7
304.03 K, 100 kPa, Liquid | 1058.5
304.16 K, 3000 kPa, Liquid | 1088.2
304.23 K, 6000 kPa, Liquid | 1109.6
304.27 K, 10000 kPa, Liquid | 1136.9
304.27 K, 12000 kPa, Liquid | 1147.7
313.81 K, 100 kPa, Liquid | 1017.3
313.82 K, 10000 kPa, Liquid | 1100.1
313.85 K, 12000 kPa, Liquid | 1110.8
313.92 K, 3000 kPa, Liquid | 1037.2
313.96 K, 6000 kPa, Liquid | 1065.2
323.56 K, 100 kPa, Liquid | 978.2
323.61 K, 3000 kPa, Liquid | 999.1
323.65 K, 6000 kPa, Liquid | 1027.4
323.67 K, 10000 kPa, Liquid | 1060.4
323.71 K, 12000 kPa, Liquid | 1075.4
333.4 K, 12000 kPa, Liquid | 1041.9
333.42 K, 100 kPa, Liquid | 938.5
333.46 K, 10000 kPa, Liquid | 1028
333.48 K, 3000 kPa, Liquid | 968
333.5 K, 6000 kPa, Liquid | 996
342.88 K, 100 kPa, Liquid | 898
343.07 K, 3000 kPa, Liquid | 927.9
343.16 K, 6000 kPa, Liquid | 954.8
343.21 K, 12000 kPa, Liquid | 1008.5
343.22 K, 10000 kPa, Liquid | 990.3
352.86 K, 100 kPa, Liquid | 858.9
352.89 K, 3000 kPa, Liquid | 891.7
352.94 K, 6000 kPa, Liquid | 921.1
353.01 K, 10000 kPa, Liquid | 961.7
353.04 K, 12000 kPa, Liquid | 975.5
363.39 K, 3000 kPa, Liquid | 852.2
363.49 K, 6000 kPa, Liquid | 883.5
363.54 K, 10000 kPa, Liquid | 925.7
363.55 K, 100 kPa, Liquid | 821.9
363.58 K, 12000 kPa, Liquid | 943.8
373.04 K, 3000 kPa, Liquid | 821.1
373.27 K, 6000 kPa, Liquid | 843.9
373.41 K, 10000 kPa, Liquid | 888.2
373.49 K, 12000 kPa, Liquid | 908.6
383.18 K, 3000 kPa, Liquid | 783.2
383.8 K, 6000 kPa, Liquid | 813.8
384.11 K, 10000 kPa, Liquid | 855.6
384.26 K, 12000 kPa, Liquid | 876.5
393.83 K, 3000 kPa, Liquid | 742.3
394 K, 6000 kPa, Liquid | 782.2
394.15 K, 10000 kPa, Liquid | 825.8
394.19 K, 12000 kPa, Liquid | 848.1
402.16 K, 3000 kPa, Liquid | 716.5
402.48 K, 6000 kPa, Liquid | 750.9
402.64 K, 10000 kPa, Liquid | 800.2
402.78 K, 12000 kPa, Liquid | 819.5
412.57 K, 3000 kPa, Liquid | 677.6
412.84 K, 6000 kPa, Liquid | 719.3
413.07 K, 10000 kPa, Liquid | 766.7
413.22 K, 12000 kPa, Liquid | 791.3
423.95 K, 3000 kPa, Liquid | 636.8
424.32 K, 6000 kPa, Liquid | 678.1
424.49 K, 10000 kPa, Liquid | 732.1
424.59 K, 12000 kPa, Liquid | 756.7
434.51 K, 3000 kPa, Liquid | 602.6
434.94 K, 6000 kPa, Liquid | 647.4
435.26 K, 10000 kPa, Liquid | 701
435.36 K, 12000 kPa, Liquid | 726.5
443.7 K, 3000 kPa, Liquid | 569.7
444 K, 6000 kPa, Liquid | 619.6
444.22 K, 10000 kPa, Liquid | 677.1
444.36 K, 12000 kPa, Liquid | 700.3
452.94 K, 3000 kPa, Liquid | 538.4
453.22 K, 6000 kPa, Liquid | 588.3
454.37 K, 10000 kPa, Liquid | 648.8
455.24 K, 12000 kPa, Liquid | 671.1
462.54 K, 3000 kPa, Liquid | 502.1
463.04 K, 6000 kPa, Liquid | 558.9
463.43 K, 10000 kPa, Liquid | 622.7
463.72 K, 12000 kPa, Liquid | 651.6
472.45 K, 3000 kPa, Liquid | 464.2
472.86 K, 6000 kPa, Liquid | 530.7
473.22 K, 10000 kPa, Liquid | 596.3
473.48 K, 12000 kPa, Liquid | 627.7
483.15 K, 3000 kPa, Liquid | 423.5
483.63 K, 6000 kPa, Liquid | 496.7
484.05 K, 10000 kPa, Liquid | 569.9
484.3 K, 12000 kPa, Liquid | 598.4
493.12 K, 3000 kPa, Liquid | 386.4
493.56 K, 6000 kPa, Liquid | 464.9
494.09 K, 10000 kPa, Liquid | 542.2
494.42 K, 12000 kPa, Liquid | 576.5
502.8 K, 3000 kPa, Liquid | 350.1
503.17 K, 6000 kPa, Liquid | 435.4
503.79 K, 10000 kPa, Liquid | 516.1
504.09 K, 12000 kPa, Liquid | 550.4
512.41 K, 3000 kPa, Liquid | 311.4
513.04 K, 6000 kPa, Liquid | 404
513.78 K, 10000 kPa, Liquid | 491.8
514.01 K, 12000 kPa, Liquid | 526.6
523.31 K, 3000 kPa, Liquid | 264.5
523.97 K, 6000 kPa, Liquid | 371.4
524.59 K, 10000 kPa, Liquid | 463
524.7 K, 12000 kPa, Liquid | 501.3
543.28 K, 3000 kPa, Fluid (supercritical or subcritical phases) | 159
543.47 K, 4000 kPa, Fluid (supercritical or subcritical phases) | 233.1
543.63 K, 5000 kPa, Fluid (supercritical or subcritical phases) | 282.2
